Patent publication US8501734B2, “Medical intervention in haematological cancers” (Oncotyrol-Center for Personalized Cancer Medicine GmbH …, priority 2008, dated 2013)

How the values were obtained:
[1] = test system: OPM2 cells; experiment: Annexin V/PI apoptosis assay (FACS), OPM2 cells; format: cell-based; design: apoptosis induction: unit not given here; details: OPM2 cells
Description: (§1) After treatment adherent cells were trypsinized (as described before), and resuspended in corresponding full medium. Suspension cells or trypsinized adherent cells, supernatant and washing solution (1×PBS from washing before trypsinization) were pooled and then spun down (300 g for 3 min) washed in 2 ml and resuspended in 1000 of annexin V binding buffer and mixed with 2 μg/ml annexin V-Allophycocyanin (APC) (BD-Pharmingen, San Diego, Calif., USA) and 50 ng/ml of propidium iodide (PI; Sigma Aldrich). At least 10.000 cells were measured per sample using a Becton Dickinson FACSCalibur flow Cytometer (San Jose, Calif., USA). Percentage of Annexin V negative and PI negative cells were depicted in the figures. For the analysis of the pro-apoptotic activity of Imiquimod® in primary MM cells and non-malignant BMMCs, 5×10^5 cells BMMCs cells were treated with or without 40 μg/ml Imiquimod® for the indicated time periods. Cells were then harvested and washed twice with PBS. Detection of apoptotic cells was performed using the annexin V/PI assay according to manufacturers' instruction. Briefly, BMMCs were stained with a mixture of annexin V/FITC (Alexis Coorp., Laeufelfingen, Switzerland), propidium iodide (Sigma), anti-CD38-PE and anti-CD45-PC5 for 15 min at room temperature and immediately analyzed by flow cytometry. The percentages of viable cells (i.e. cells negative for annexin V/FITC and PI) within the MM (CD38^posCD45^low/absent) and non-MM fraction (CD38^neg/CD45^pos) were determined by flow cytometry.
Cells were cultured as described before and, treated with 40 μg/ml Imiquimod® or Gardiquimod® for 24 h, and apoptosis was assayed by AnnexinV/PI staining and FACS analysis.
(§2) Adherent cells were grown in 24-well plates to confluence and treated with 40 μg/ml Imiquimod® for 24 h. Cells were then trypsinized, suspended in full medium, stained for AnnexinV/PI and apoptosis was measured as described before. Suspension cells (250.000) were treated with 40 μg/ml Imiquimod® for 24 h, stained for Annexin/PI and apoptosis was measured as described above (Annexin V/Propidium Iodide apoptosis Assay).
(§3) OPM-2 and U266 cells (2.5×10^5 in 500 μl) were treated with either Imiquimod® alone (10 μg/500 μl), various inhibitors/drugs alone or with the combination of Imiquimod® and inhibitors for 24 or 48 h. In the controls the solvent of the drug has been added in appropriate amounts. Cells were then AnnexinV/PI stained and apoptosis measured as described before.

[2] = test system: U266 cells; experiment: Annexin V/PI apoptosis assay (FACS), U266 cells; format: cell-based; design: apoptosis induction: unit not given here; also: key: 0 for no; + for low; ++: + indicates the range of apoptosis induction; +++: + indicates the range of apoptosis induction; ++++ for very strong apoptosis induction
Description: as §1, §2, §3

[3] = 24 h, Imi 20 μg/ml + drug 10 nM
[4] = 24 h, Imi 20 μg/ml + drug 100 nM
[5] = 48 h, Imi 20 μg/ml + drug 10 nM
[6] = 48 h, Imi 20 μg/ml + drug 100 nM
[7] = 24 h, Imi 20 μg/ml + drug 10 μM
[8] = 24 h, Imi 20 μg/ml + drug 100 μM
[9] = 48 h, Imi 20 μg/ml + drug 10 μM
[10] = 48 h, Imi 20 μg/ml + drug 100 μM
[11] = 24 h, Imi 20 μg/ml + drug 50 μM
[12] = 48 h, Imi 20 μg/ml + drug 50 μM
[13] = 24 h, Imi 20 μg/ml + drug 1 ng/ml
[14] = 24 h, Imi 20 μg/ml + drug 10 ng/ml
[15] = 24 h, Imi 20 μg/ml + drug 50 ng/ml
[16] = 48 h, Imi 20 μg/ml + drug 1 ng/ml
[17] = 48 h, Imi 20 μg/ml + drug 10 ng/ml
[18] = 48 h, Imi 20 μg/ml + drug 50 ng/ml

## C[C@@H]1C[C@H]2[C@@H]3CCC4=CC(=O)C=C[C@]4(C)[C@@]3(F)[C@@H](O)C[C@]2(C)[C@@]1(O)C(=O)CO [Dex., Dexamethasone]
[1]; [3]
  apoptosis induction: +
[1]; [4]
  apoptosis induction: +
[1]; 24 h, Imi 20 μg/ml + drug 1 μM
  apoptosis induction: +
[1]; 24 h, drug alone 10 nM
  apoptosis induction: 0
[1]; 24 h, drug alone 100 nM
  apoptosis induction: 0
[1]; 24 h, drug alone 1 μM
  apoptosis induction: 0
[1]; [5]
  apoptosis induction: ++
[1]; [6]
  apoptosis induction: +++
[1]; 48 h, Imi 20 μg/ml + drug 1 μM
  apoptosis induction: +++
[1]; 48 h, drug alone 10 nM
  apoptosis induction: 0
[1]; 48 h, drug alone 100 nM
  apoptosis induction: 0
[1]; 48 h, drug alone 1 μM
  apoptosis induction: 0
[2]; [3]
  apoptosis induction: +
[2]; [4]
  apoptosis induction: +
[2]; 24 h, Imi 20 μg/ml + drug 1 μM
  apoptosis induction: +
[2]; 24 h, drug alone 10 nM
  apoptosis induction: 0
[2]; 24 h, drug alone 100 nM
  apoptosis induction: 0
[2]; 24 h, drug alone 1 μM
  apoptosis induction: 0
[2]; [5]
  apoptosis induction: +
[2]; [6]
  apoptosis induction: +
[2]; 48 h, Imi 20 μg/ml + drug 1 μM
  apoptosis induction: +
[2]; 48 h, drug alone 10 nM
  apoptosis induction: 0
[2]; 48 h, drug alone 100 nM
  apoptosis induction: 0
[2]; 48 h, drug alone 1 μM
  apoptosis induction: 0

## CCNCc1nc2c(N)nc3ccccc3c2n1CC(C)(C)O [Gardiquimod, 1-(4-Amino-2-ethylaminomethylimidazo[4,5-c]quinolin-1-yl)-2-methylpropan-2-ol]
[1]; 40 μg/ml, 24 h
  apoptosis induction compared with Imiquimod: comparable, though slightly lower extend

## Cn1c2ccccc2c2c3c(c4c5ccccc5n(CCC#N)c4c21)CNC3=O [Gö 6976]
[1]; [4]
  apoptosis induction: +
[1]; 24 h, Imi 20 μg/ml + drug 1 μM
  apoptosis induction: ++
[1]; 24 h, Imi 20 μg/ml + drug 5 μM
  apoptosis induction: ++
[1]; 24 h, drug alone 100 nM
  apoptosis induction: 0
[1]; 24 h, drug alone 1 μM
  apoptosis induction: 0
[1]; 24 h, drug alone 5 μM
  apoptosis induction: 0
[1]; [6]
  apoptosis induction: ++
[1]; 48 h, Imi 20 μg/ml + drug 1 μM
  apoptosis induction: +++
[1]; 48 h, Imi 20 μg/ml + drug 5 μM
  apoptosis induction: +++
[1]; 48 h, drug alone 100 nM
  apoptosis induction: 0
[1]; 48 h, drug alone 1 μM
  apoptosis induction: 0
[1]; 48 h, drug alone 5 μM
  apoptosis induction: +
[2]; [4]
  apoptosis induction: +
[2]; 24 h, Imi 20 μg/ml + drug 1 μM
  apoptosis induction: ++
[2]; 24 h, Imi 20 μg/ml + drug 5 μM
  apoptosis induction: ++
[2]; 24 h, drug alone 100 nM
  apoptosis induction: 0
[2]; 24 h, drug alone 1 μM
  apoptosis induction: 0
[2]; 24 h, drug alone 5 μM
  apoptosis induction: 0
[2]; [6]
  apoptosis induction: ++
[2]; 48 h, Imi 20 μg/ml + drug 1 μM
  apoptosis induction: +++
[2]; 48 h, Imi 20 μg/ml + drug 5 μM
  apoptosis induction: +++
[2]; 48 h, drug alone 100 nM
  apoptosis induction: 0
[2]; 48 h, drug alone 1 μM
  apoptosis induction: 0
[2]; 48 h, drug alone 5 μM
  apoptosis induction: +

## O=C1CCC(N2C(=O)c3ccccc3C2=O)C(=O)N1 (stereo not drawn) [Thalidomide]
[1]; [7]
  apoptosis induction: +
[1]; [8]
  apoptosis induction: +
[1]; 24 h, Imi 20 μg/ml + drug 1 mM
  apoptosis induction: +
[1]; 24 h, drug alone 10 μM
  apoptosis induction: 0
[1]; 24 h, drug alone 100 μM
  apoptosis induction: 0
[1]; 24 h, drug alone 1 mM
  apoptosis induction: 0
[1]; [9]
  apoptosis induction: ++
[1]; [10]
  apoptosis induction: ++
[1]; 48 h, Imi 20 μg/ml + drug 1 mM
  apoptosis induction: +++
[1]; 48 h, drug alone 10 μM
  apoptosis induction: 0
[1]; 48 h, drug alone 100 μM
  apoptosis induction: 0
[1]; 48 h, drug alone 1 mM
  apoptosis induction: 0
[2]; [7]
  apoptosis induction: +
[2]; [8]
  apoptosis induction: +
[2]; 24 h, Imi 20 μg/ml + drug 1 mM
  apoptosis induction: +
[2]; 24 h, drug alone 10 μM
  apoptosis induction: 0
[2]; 24 h, drug alone 100 μM
  apoptosis induction: 0
[2]; 24 h, drug alone 1 mM
  apoptosis induction: +
[2]; [9]
  apoptosis induction: +
[2]; [10]
  apoptosis induction: +
[2]; 48 h, Imi 20 μg/ml + drug 1 mM
  apoptosis induction: +
[2]; 48 h, drug alone 10 μM
  apoptosis induction: 0
[2]; 48 h, drug alone 100 μM
  apoptosis induction: 0
[2]; 48 h, drug alone 1 mM
  apoptosis induction: +

## CNC(=O)c1cc(Oc2ccc(NC(=O)Nc3ccc(Cl)c(C(F)(F)F)c3)cc2)ccn1 [Sorafenib]
[1]; 24 h, Imi 20 μg/ml + drug 1 μM
  apoptosis induction: +
[1]; [7]
  apoptosis induction: +
[1]; [11]
  apoptosis induction: ++++
[1]; 24 h, drug alone 1 μM
  apoptosis induction: 0
[1]; 24 h, drug alone 10 μM
  apoptosis induction: +
[1]; 24 h, drug alone 50 μM
  apoptosis induction: ++++
[1]; 48 h, 10 μM drug + Imiquimod 20 μg/ml
  cells in apoptosis: ~100%
[1]; 48 h, Imi 20 μg/ml + drug 1 μM
  apoptosis induction: ++
[1]; [9]
  apoptosis induction: ++++
[1]; [12]
  apoptosis induction: ++++
[1]; 48 h, drug alone 1 μM
  apoptosis induction: 0
[1]; 48 h, drug alone 10 μM
  apoptosis induction: ++
[1]; 48 h, drug alone 50 μM
  apoptosis induction: ++++
[1]; drug alone 50 μM
  cell killing: completely killed cells
[2]; 24 h, Imi 20 μg/ml + drug 1 μM
  apoptosis induction: 0
[2]; [7]
  apoptosis induction: +
[2]; [11]
  apoptosis induction: +++
[2]; 24 h, drug alone 1 μM
  apoptosis induction: 0
[2]; 24 h, drug alone 10 μM
  apoptosis induction: 0
[2]; 24 h, drug alone 50 μM
  apoptosis induction: +++
[2]; 48 h, Imi 20 μg/ml + drug 1 μM
  apoptosis induction: +
[2]; [9]
  apoptosis induction: ++
[2]; [12]
  apoptosis induction: +++
[2]; 48 h, drug alone 1 μM
  apoptosis induction: +
[2]; 48 h, drug alone 10 μM
  apoptosis induction: +
[2]; 48 h, drug alone 50 μM
  apoptosis induction: +++

## CC(C)C[C@H](NC(=O)[C@H](Cc1ccccc1)NC(=O)c1cnccn1)B(O)O [Velcade]
[1]; [13]
  apoptosis induction: +
[1]; [14]
  apoptosis induction: +
[1]; [15]
  apoptosis induction: +
[1]; 24 h, drug alone 1 ng/ml
  apoptosis induction: 0
[1]; 24 h, drug alone 10 ng/ml
  apoptosis induction: +
[1]; 24 h, drug alone 50 ng/ml
  apoptosis induction: +
[1]; [16]
  apoptosis induction: ++
[1]; [17]
  apoptosis induction: ++
[1]; [18]
  apoptosis induction: +++
[1]; 48 h, drug alone 1 ng/ml
  apoptosis induction: 0
[1]; 48 h, drug alone 10 ng/ml
  apoptosis induction: +++
[1]; 48 h, drug alone 50 ng/ml
  apoptosis induction: +++
[2]; [13]
  apoptosis induction: +
[2]; [14]
  apoptosis induction: +
[2]; [15]
  apoptosis induction: ++
[2]; 24 h, drug alone 1 ng/ml
  apoptosis induction: 0
[2]; 24 h, drug alone 10 ng/ml
  apoptosis induction: ++
[2]; 24 h, drug alone 50 ng/ml
  apoptosis induction: ++
[2]; [16]
  apoptosis induction: +
[2]; [17]
  apoptosis induction: ++
[2]; [18]
  apoptosis induction: ++
[2]; 48 h, drug alone 1 ng/ml
  apoptosis induction: 0
[2]; 48 h, drug alone 10 ng/ml
  apoptosis induction: +++
[2]; 48 h, drug alone 50 ng/ml
  apoptosis induction: +++
